Molecules are shown by their SMILES. Where a SMILES comes first, the peptide text is derived from it. [ ]: non-standard residue; d: D form. pGlu = O=C1CC[C@@H](C(=O)O)N1; Thz = O=C(O)[C@@H]1CSCN1

This series can be described thus: GHS categories as the set defines them, by LD50: 1 up to 5, 2 up to 50, 3 up to 300, 4 up to 2000, 5 above 2000 mg/kg. The note with it: rat; in vivo; po. The source says:
[…]The data set underlying the modeling effort for this project was initially compiled by NICEATM and U.S. EPA’s CCTE. Briefly, LD50 data were collected from rat acute oral systemic toxicity tests, including limit tests, ranges/confidence intervals, and discrete LD50 values. The full data set included 21,200 LD50 entries for 15,688 substances. […] Data were reviewed to ensure that LD50 values with obvious errors in the extracted data such as unit conversion errors (e.g., comma and decimal separator misplacements) were either fixed or removed. After this review, 16,209 LD50 values remained. Many of the chemicals represented had multiple LD50 entries, requiring that a single representative value per Chemical Abstracts Service Registry Number (CASRN) identifier be defined to facilitate modeling efforts. Based on ATWG feedback and to define the representative LD50 as a protective value while accounting for the distribution across multiple LD50s, the median of the lowest quartile was computed using only discrete LD50 values (omitting limit test data and range and confidence interval data). A detailed summary of the data compilation is available online on the NICEATM webpage dedicated to the collaborative modeling project (NTP 2020).
[…][…] For categorical designations, limit test and range/confidence interval LD50 data were integrated wherever possible. As such, the number of chemicals with end point values/calls varies across the modeling end points (Table 3) based on whether chemicals had representative LD50 values and/or other data. If a chemical had both, the representative value was used to determine categorical calls rather than limit test data. Some data were useable only for certain end points and categories depending on the thresholds. For example, ranges that spanned multiple hazard categories were considered only for the binary (very toxic/nontoxic) end points and omitted from rendering a determination for hazard category assignment.
[…]The final data set comprising 11,992 chemicals was split into training and evaluation sets […], respectively. This process was performed semirandomly by ordering chemicals based on the five end points (categorical and continuous LD50 values) and partitioning every fourth record into the evaluation set accordingly. This approach was taken to ensure an equivalent distribution of the LD50 values and the different hazard categories between the training and the evaluation sets without supervised sampling of the chemicals based on structures (Figure 1A). The sources of the chemical structures were also kept equivalent between the two sets, with chemical structures obtained from DSSTox, being the highest quality, representing over 75% of each set (Figure 1B).
Turning to `CCCCCCCCCCCCCCCCCC(=O)OCC(COC(=O)CCCCCCCCCCCCCCCCC)OC(=O)CCCCCCCCCCCCCCCCC`, the GHS category is 5. With `N[C@@H](CSCC(=O)O)C(=O)O` the figure was 5; with `CC(C)CCCCCCCCOCCCNCCC#N`, 5. `Cc1cc(-c2ccc(N=C=O)c(C)c2)ccc1N=C=O` came in with a GHS category of 5. With `Nc1c(Oc2ccccc2)cc(O)c2c1C(=O)c1ccccc1C2=O` the figure was 5; with `C=CC(=O)OCCOCC(CC)(COCCOC(=O)C=C)COCCOC(=O)C=C`, 5; with `CC(=O)c1c(C)c([N+](=O)[O-])c(C(C)(C)C)c([N+](=O)[O-])c1C`, 5. With `Cc1cccc(N(C)C(=S)Oc2ccc3c(c2)C2CCC3C2)c1` (stereo unspecified) the figure was 4; with `Cc1ccc(S(=O)(=O)NC(=O)NC(=O)C(Cl)(Cl)Cl)cc1`, 5. With `c1ccc([Si]2(c3ccccc3)O[Si](c3ccccc3)(c3ccccc3)O[Si](c3ccccc3)(c3ccccc3)O[Si](c3ccccc3)(c3ccccc3)O2)cc1` the figure was 5. In turn, `CN(C)CC(=O)N/N=C/c1c(Cl)nc2n1CCS2` displayed a GHS category of 4. In the case of `O=S(=O)([O-])CCC[n+]1ccccc1`, the GHS category is recorded as 5.

With `O=C1CCc2ccc(OCC(O)CN3CCC(c4ccccc4)CC3)cc2N1` (stereo unspecified), the GHS category came to 4. `O=C1CC(N2C(=O)c3ccccc3C2=O)CC(=O)N1CN1CCOCC1`: the GHS category is given as 5.

The compound `FC(F)(F)C(F)(F)C(F)(F)C(F)(F)N(C(F)(F)C(F)(F)C(F)(F)C(F)(F)F)C(F)(F)C(F)(F)C(F)(F)C(F)(F)F` had a GHS category of 5. As to `CCOc1ccc(NC(=O)OC(C)C)cc1OCC`, the GHS category is recorded as 5. Next, `CC(=O)OC1C(N2CCCC2)CC2C3CCC4CC(O)C(N5CCOCC5)CC4(C)C3CCC21C` (stereo unspecified): 5; `CC12CCC3c4ccc(OC(=O)c5ccccc5)cc4CCC3C1CCC2OC(=O)COC(=O)CCCc1ccc(N(CCCl)CCCl)cc1` (stereo unspecified): 5; `CCOC(=O)C1(C)OC(=O)N(c2cc(Cl)cc(Cl)c2)C1=O` (stereo unspecified): 5. Next, `CCC(C)(NC(=O)c1cc(Cl)c(C)c(Cl)c1)C(=O)CCl` (stereo unspecified): 5; `CCOc1ccc(OC)cc1-c1nc(=O)c2cc(C(=O)O)ccc2[nH]1`: 4; `CNc1ccc(C(=O)O)cc1[N+](=O)[O-]`: 5. With `CCCCCC(=O)OC` the figure was 5; with `CCCCCCCCCCCC1CC(O)=C(CCCCCC)C(=O)O1` (stereo unspecified), 5; with `CCCCC(=O)O[C@]1(C(=O)COC(C)=O)CC[C@H]2[C@@H]3CCC4=CC(=O)C=C[C@]4(C)[C@H]3[C@@H](O)C[C@@]21C`, 5.

The compound `Nc1cc(S(=O)(=O)O)c2cc(S(=O)(=O)O)cc(S(=O)(=O)O)c2c1` displayed a GHS category of 5. As for `OCC1=C[C@H](N[C@H]2C[C@H](CO)[C@@H](O[C@@H]3O[C@H](CO)[C@@H](O)[C@H](O)[C@H]3O)[C@H](O)[C@H]2O)[C@H](O)[C@@H](O)[C@@H]1O`, the GHS category turned out to be 5. With `Cc1ccc(Nc2ccc(Nc3ccc(C)cc3S(=O)(=O)O)c3c2C(=O)c2c(O)ccc(O)c2C3=O)c(S(=O)(=O)O)c1` the figure was 5; with `CCN(C)CCC(C#N)(CC=C(C)C)c1cccc2ccccc12` (stereo unspecified), 4; with `CN(C)CCOC(=O)C(c1ccccc1)C1(O)CCCC1` (stereo unspecified), 5. With `CN(C(=O)CC(=O)N(C)c1c(I)c(C(=O)NC(CO)C(O)CO)c(I)c(C(=O)NC(CO)C(O)CO)c1I)c1c(I)c(C(=O)NC(CO)C(O)CO)c(I)c(C(=O)NC(CO)C(O)CO)c1I` (stereo unspecified) the figure was 5; with `NCC(=O)N[C@@H](CCC(N)=O)C(=O)O` (H-Gly-Gln-OH), 5; with `CNC(=O)C(C#N)=c1[nH]c(=C2C(=O)NC(=O)NC2=O)c2ccccc12`, 5.

`O=C(NC(=O)C(Cl)(Cl)Cl)NS(=O)(=O)c1ccccc1` gave a GHS category of 5. For the compound `OC(Cn1ccnc1)c1ccc(CCc2ccccc2)cc1` (stereo unspecified), the GHS category is listed as 5. With `C=CC(=O)OCCN(C)S(=O)(=O)C(F)(F)C(F)(F)C(F)(F)C(F)(F)F` (racemic) the figure was 5. Next, `O=c1[nH]n(-c2cccc(C(F)(F)F)c2)c2ncccc12`: 4. As to `CC1CC(OC(=O)C(Oc2ccc(Cl)cc2)C(C)C)CC(C)(C)C1` (stereo unspecified), the GHS category is listed as 5. Next, `CCOC(=O)[C@H](CCc1ccccc1)N[C@H]1CCc2ccccc2N(CC(=O)O)C1=O`: 5; `CCCCCCCC/C=C\CCCCCCCCCCCCC`: 5; `Cc1ccc(S(=O)(=O)NC(=O)NN2CCCCCC2)cc1`: 5. Next, `CC(=O)OC1CCC2C3CCC4CC(=O)CCC4(C)C3CCC12C` (stereo unspecified): 5.

The compound `CCOC(=O)C1(OC(=O)Cc2ccc(Cl)cc2Cl)CCCCC1` came in with a GHS category of 5. Next, `COc1cc(NS(=O)(=O)c2ccc(N)cc2)ncn1`: 5.

As to `CS(=O)(=O)OC[C@@H](OS(C)(=O)=O)[C@@H](O)[C@H](O)[C@@H](COS(C)(=O)=O)OS(C)(=O)=O`, the GHS category is 5. With `Cc1cc(C)c(C(=O)P(=O)(C(=O)c2c(C)cc(C)cc2C)c2ccccc2)c(C)c1` the figure was 5; with `CCCCCCCCCCCCCCCc1cccc(OC(=O)c2ccccc2OC(N)=O)c1`, 5.

Turning to `CCOCC(O)COc1ccc(NC(=O)CC[S+](C)C)cc1` (stereo unspecified), the GHS category was 5.

For the compound `O=[N+]([O-])c1cc2c(Nc3ccc(F)c(Cl)c3)ncnc2cc1O[C@H]1CCOC1`, the GHS category turned out to be 5.

In turn, `COc1c(C)c(O)c(C)c(C)c1C(=O)Oc1c(C)c(C)c(C(=O)Oc2c(C)c(C)c(C(=O)O)c(OC)c2C)c(O)c1C` gave a GHS category of 4. With `COc1ccccc1N=NC(C(C)=O)C(=O)Nc1ccc2[nH]c(=O)[nH]c2c1` (stereo unspecified) the figure was 5; with `CCC(C)(C)c1ccccc1`, 5; with `C=Cc1ccc(O)c(C=C)c1`, 5. Compound `CNC(=O)N(C)c1nc2ccccc2s1` came in with a GHS category of 5. With `CC(C)(C1CCCO1)C1CCCO1` (stereo unspecified), the GHS category is reported as 4. With `CCOC(=O)Oc1ccc(C2(c3ccc(OC(=O)OCC)cc3)C(=O)Nc3c(C)cccc32)cc1` the figure was 5. With `Cn1nnnc1SCC1=C(C(=O)O)N2C(=O)[C@@H](NC(=O)[C@H](O)c3ccccc3)[C@H]2SC1` the figure was 5; with `O=C1Nc2ccccc2C1=O`, 5. `C[C@@H]1CN([C@H]2CC[C@](C#N)(c3ccc(F)cc3)CC2)CC[C@]1(C(=O)O)c1ccccc1` gave a GHS category of 5. With `O=C1CC[C@@H](C(=O)N2CSC[C@H]2C(=O)O)N1` ([pGlu]-[Thz]-OH) the figure was 5; with `O=C(O)c1ccccc1Nc1ccc(Cl)c2ccccc12`, 5; with `Clc1ccc2c(n1)C(c1ccccc1Cl)=NCc1nncn1-2`, 5. With `CCCCc1ccc2[nH]c(NC(=O)OC)nc2c1` the figure was 2. With `CS/C(C)=N/O` the figure was 4; with `CNC(=O)C(=NNc1ccc(OC)cc1)C(C)=O`, 5; with `NCCCC(N)(C(=O)O)C(F)F` (stereo unspecified), 5.

The values are drawn from the CATMoS acute toxicity set (Mansouri et al. 2021).
